Source: PubChem BioAssay AID1745844 (Carcinogenic Potency Database (CPDB), 2022)
Calls of active or inactive are those of the source. The rule behind the calls is not given here.

Test system: rodent lifetime carcinogenesis bioassay, tumor incidence TD50
Test: carcinogenic potency in animals, long-term in vivo studies, CPDB compilation (AID 1745844)

CCCC(Cl)CCCC(Cl)CCC(Cl)CCC(Cl)CCC(Cl)CCCC(Cl)CCC (stereo not drawn)
TD50 (mouse, strain B6C3F1, females, by gavage, site: Harderian gland, lesion: adenoma, NOS, dosed 103 weeks, study length 104 weeks): 347 mg/kg/day | TD50 (mouse, strain B6C3F1, females, by gavage, site: liver + thyroid gland, lesion: hepatocellular adenoma + hepatocellular carcinoma + follicular-cell adenoma + follicular-cell carcinoma, dosed 103 weeks, study length 104 weeks): 86.8 mg/kg/day | TD50 (mouse, strain B6C3F1, females, by gavage, site: lung, lesion: alveolar/bronchiolar adenoma + alveolar/bronchiolar carcinoma, dosed 103 weeks, study length 104 weeks): 1.22e+06 mg/kg/day | TD50 (mouse, strain B6C3F1, females, by gavage, site: multiple organs, lesion: malignant lymphoma, lymphocytic type, dosed 103 weeks, study length 104 weeks): 599 mg/kg/day | TD50 (mouse, strain B6C3F1, females, by gavage, site: thyroid gland, lesion: follicular-cell adenoma + follicular-cell carcinoma, dosed 103 weeks, study length 104 weeks): 307 mg/kg/day | TD50 (mouse, strain B6C3F1, females, by gavage, site: thyroid gland, lesion: follicular-cell adenoma, dosed 103 weeks, study length 104 weeks): 372 mg/kg/day | TD50 (mouse, strain B6C3F1, males, by gavage, site: liver + mesenteric lymph node + multiple organs + small intestine + spleen, lesion: malignant lymphoma, NOS + malignant lymphoma, mixed type + malignant lymphoma, lymphocytic type + malignant lymphoma, histiocy, dosed 103 weeks, study length 104 weeks): 6540 mg/kg/day | TD50 (mouse, strain B6C3F1, males, by gavage, site: liver, lesion: hepatocellular adenoma + hepatocellular carcinoma, dosed 103 weeks, study length 104 weeks): 143 mg/kg/day | TD50 (mouse, strain B6C3F1, males, by gavage, site: liver, lesion: hepatocellular adenoma, dosed 103 weeks, study length 104 weeks): 157 mg/kg/day | TD50 (mouse, strain B6C3F1, males, by gavage, site: lung, lesion: alveolar/bronchiolar carcinoma, dosed 103 weeks, study length 104 weeks): 606 mg/kg/day | TD50 (mouse, strain B6C3F1, males, by gavage, site: mesenteric lymph node + multiple organs + small intestine + spleen, lesion: malignant lymphoma, mixed type, dosed 103 weeks, study length 104 weeks): 12100 mg/kg/day | TD50 (mouse, strain B6C3F1, males, by gavage, site: mesenteric lymph node + multiple organs, lesion: malignant lymphoma, lymphocytic type, dosed 103 weeks, study length 104 weeks): 22900 mg/kg/day | TD50 (mouse, strain B6C3F1, males, by gavage, site: multiple organs, lesion: malignant lymphoma, histiocytic type, dosed 103 weeks, study length 104 weeks): 43200 mg/kg/day | TD50 (mouse, strain B6C3F1, males, by gavage, site: thyroid gland, lesion: follicular-cell carcinoma, dosed 103 weeks, study length 104 weeks): 44000 mg/kg/day | TD50 (rat, strain Fischer 344, females, by gavage, site: adrenal medulla, lesion: pheochromocytoma + pheochromocytoma, malignant, dosed 103 weeks, study length 105 weeks): 2350 mg/kg/day | TD50 (rat, strain Fischer 344, females, by gavage, site: any site (literature study), lesion: several types, types named in the paper, dosed 104 weeks, study length 105 weeks): 1100 mg/kg/day | TD50 (rat, strain Fischer 344, females, by gavage, site: liver + thyroid gland, lesion: hepatocellular carcinoma + neoplastic nodule + follicular-cell adenoma + follicular-cell carcinoma, dosed 104 weeks, study length 105 weeks): 583 mg/kg/day | TD50 (rat, strain Fischer 344, females, by gavage, site: liver, lesion: hepatocellular adenoma + hepatocellular carcinoma + neoplastic nodule, dosed 103 weeks, study length 105 weeks): 24800 mg/kg/day | TD50 (rat, strain Fischer 344, females, by gavage, site: liver, lesion: hepatocellular adenoma + hepatocellular carcinoma + neoplastic nodule, dosed 104 weeks, study length 105 weeks): 1140 mg/kg/day | TD50 (rat, strain Fischer 344, females, by gavage, site: liver, lesion: hepatocellular carcinoma + neoplastic nodule, dosed 104 weeks, study length 105 weeks): 1140 mg/kg/day | TD50 (rat, strain Fischer 344, females, by gavage, site: liver, lesion: neoplastic nodule, dosed 104 weeks, study length 105 weeks): 1200 mg/kg/day | TD50 (rat, strain Fischer 344, females, by gavage, site: multiple organs, lesion: mononuclear-cell leukemia, dosed 104 weeks, study length 105 weeks): 345 mg/kg/day | TD50 (rat, strain Fischer 344, females, by gavage, site: pancreas, lesion: acinar-cell adenoma, dosed 104 weeks, study length 105 weeks): 839 mg/kg/day | TD50 (rat, strain Fischer 344, females, by gavage, site: thyroid gland, lesion: follicular-cell adenoma + follicular-cell carcinoma, dosed 104 weeks, study length 105 weeks): 1160 mg/kg/day | TD50 (rat, strain Fischer 344, females, by gavage, site: thyroid gland, lesion: follicular-cell adenoma, dosed 104 weeks, study length 105 weeks): 736 mg/kg/day | TD50 (rat, strain Fischer 344, females, by gavage, site: thyroid gland, lesion: follicular-cell carcinoma, dosed 104 weeks, study length 105 weeks): 4060 mg/kg/day | TD50 (rat, strain Fischer 344, females, by gavage, site: uterus, lesion: endometrial stromal polyp + endometrial stromal sarcoma, dosed 104 weeks, study length 105 weeks): 394 mg/kg/day | TD50 (rat, strain Fischer 344, males, by gavage, site: adrenal gland, lesion: pheochromocytoma + pheochromocytoma, malignant, dosed 104 weeks, study length 105 weeks): 192 mg/kg/day | TD50 (rat, strain Fischer 344, males, by gavage, site: any site (literature study), lesion: several types, types named in the paper, dosed 104 weeks, study length 105 weeks): 75.7 mg/kg/day | TD50 (rat, strain Fischer 344, males, by gavage, site: kidney + liver, lesion: tubular-cell adenoma + tubular-cell adenocarcinoma + hepatocellular carcinoma + neoplastic nodule, dosed 104 weeks, study length 105 weeks): 110 mg/kg/day | TD50 (rat, strain Fischer 344, males, by gavage, site: kidney, lesion: tubular-cell adenoma + tubular-cell adenocarcinoma, dosed 104 weeks, study length 105 weeks): 196 mg/kg/day | TD50 (rat, strain Fischer 344, males, by gavage, site: kidney, lesion: tubular-cell adenoma, dosed 104 weeks, study length 105 weeks): 417 mg/kg/day | TD50 (rat, strain Fischer 344, males, by gavage, site: liver, lesion: hepatocellular adenoma + hepatocellular carcinoma + neoplastic nodule, dosed 103 weeks, study length 105 weeks): 14500 mg/kg/day | TD50 (rat, strain Fischer 344, males, by gavage, site: liver, lesion: hepatocellular adenoma + hepatocellular carcinoma + neoplastic nodule, dosed 104 weeks, study length 105 weeks): 123 mg/kg/day | TD50 (rat, strain Fischer 344, males, by gavage, site: liver, lesion: hepatocellular carcinoma + neoplastic nodule, dosed 104 weeks, study length 105 weeks): 123 mg/kg/day | TD50 (rat, strain Fischer 344, males, by gavage, site: liver, lesion: hepatocellular carcinoma, dosed 104 weeks, study length 105 weeks): 551 mg/kg/day | TD50 (rat, strain Fischer 344, males, by gavage, site: liver, lesion: neoplastic nodule, dosed 103 weeks, study length 105 weeks): 14500 mg/kg/day (inactive) | TD50 (rat, strain Fischer 344, males, by gavage, site: liver, lesion: neoplastic nodule, dosed 104 weeks, study length 105 weeks): 173 mg/kg/day | TD50 (rat, strain Fischer 344, males, by gavage, site: mammary gland, lesion: fibroadenoma, dosed 104 weeks, study length 105 weeks): 566 mg/kg/day | TD50 (rat, strain Fischer 344, males, by gavage, site: multiple organs + spleen, lesion: mononuclear-cell leukemia, dosed 104 weeks, study length 105 weeks): 406 mg/kg/day | TD50 (rat, strain Fischer 344, males, by gavage, site: pancreas, lesion: acinar-cell adenoma, dosed 104 weeks, study length 105 weeks): 150 mg/kg/day | TD50 (rat, strain Fischer 344, males, by gavage, site: pancreas, lesion: acinar-cell carcinoma + acinar-cell adenoma, dosed 104 weeks, study length 105 weeks): 144 mg/kg/day | TD50 (rat, strain Fischer 344, males, by gavage, site: pancreatic islets, lesion: islet-cell adenoma, dosed 103 weeks, study length 105 weeks): 17600 mg/kg/day | TD50 (rat, strain Fischer 344, males, by gavage, site: preputial gland, lesion: adenoma, NOS + carcinoma, NOS, dosed 104 weeks, study length 105 weeks): 522 mg/kg/day | TD50 (rat, strain Fischer 344, males, by gavage, site: preputial gland, lesion: adenoma, NOS, dosed 104 weeks, study length 105 weeks): 568 mg/kg/day | TD50 (rat, strain Fischer 344, males, by gavage, site: skin + subcutaneous tissue, lesion: fibroma, dosed 104 weeks, study length 105 weeks): 332 mg/kg/day | TD50 (rat, strain Fischer 344, males, by gavage, site: testis, lesion: interstitial-cell tumor, dosed 104 weeks, study length 105 weeks): 75.2 mg/kg/day

COC(N)=O
carcinogen call (mouse, strain B6C3F1, females, by gavage, site: any site (literature study), lesion: several types, types named in the paper, dosed 103 weeks, study length 104 weeks): negative (inactive) | TD50 (mouse, strain B6C3F1, females, by gavage, site: liver, lesion: hepatocellular adenoma + hepatocellular carcinoma + neoplastic nodule, dosed 103 weeks, study length 104 weeks): 4700 mg/kg/day | TD50 (mouse, strain B6C3F1, males, by gavage, site: any site (literature study), lesion: several types, types named in the paper, dosed 103 weeks, study length 104 weeks): 5220 mg/kg/day (inactive) | TD50 (mouse, strain B6C3F1, males, by gavage, site: liver, lesion: hepatocellular adenoma + hepatocellular carcinoma + neoplastic nodule, dosed 103 weeks, study length 104 weeks): 5080 mg/kg/day | TD50 (rat, strain Fischer 344, females, by gavage, site: liver, lesion: hepatocellular adenoma + hepatocellular carcinoma + neoplastic nodule, dosed 103 weeks, study length 104 weeks): 839 mg/kg/day | TD50 (rat, strain Fischer 344, females, by gavage, site: liver, lesion: hepatocellular carcinoma + neoplastic nodule, dosed 103 weeks, study length 104 weeks): 839 mg/kg/day | TD50 (rat, strain Fischer 344, females, by gavage, site: liver, lesion: hepatocellular carcinoma, dosed 52 weeks, study length 52 weeks): 53.4 mg/kg/day | TD50 (rat, strain Fischer 344, females, by gavage, site: liver, lesion: hepatocellular carcinoma, dosed 78 weeks, study length 78 weeks): 68.4 mg/kg/day | TD50 (rat, strain Fischer 344, females, by gavage, site: liver, lesion: neoplastic nodule, dosed 52 weeks, study length 52 weeks): 21.3 mg/kg/day | TD50 (rat, strain Fischer 344, females, by gavage, site: liver, lesion: neoplastic nodule, dosed 78 weeks, study length 78 weeks): 159 mg/kg/day | TD50 (rat, strain Fischer 344, females, by gavage, site: liver, lesion: neoplastic nodule, dosed 103 weeks, study length 104 weeks): 979 mg/kg/day | TD50 (rat, strain Fischer 344, males, by gavage, site: liver, lesion: hepatocellular adenoma + hepatocellular carcinoma + neoplastic nodule, dosed 103 weeks, study length 104 weeks): 2030 mg/kg/day | TD50 (rat, strain Fischer 344, males, by gavage, site: liver, lesion: hepatocellular carcinoma + neoplastic nodule, dosed 103 weeks, study length 104 weeks): 2030 mg/kg/day | TD50 (rat, strain Fischer 344, males, by gavage, site: liver, lesion: hepatocellular carcinoma, dosed 52 weeks, study length 52 weeks): 30.4 mg/kg/day | TD50 (rat, strain Fischer 344, males, by gavage, site: liver, lesion: hepatocellular carcinoma, dosed 78 weeks, study length 78 weeks): 47.8 mg/kg/day | TD50 (rat, strain Fischer 344, males, by gavage, site: liver, lesion: neoplastic nodule, dosed 52 weeks, study length 52 weeks): 40.7 mg/kg/day | TD50 (rat, strain Fischer 344, males, by gavage, site: liver, lesion: neoplastic nodule, dosed 78 weeks, study length 78 weeks): 494 mg/kg/day

NC(=O)NNc1ccccc1
TD50 (mouse, strain Swiss albino, females, in drinking water, site: liver, lesion: angioma, dosed 79 weeks, study length 79 weeks): 2670 mg/kg/day (inactive) | TD50 (mouse, strain Swiss albino, females, in drinking water, site: liver, lesion: angiosarcoma, dosed 79 weeks, study length 79 weeks): 1980 mg/kg/day (inactive) | TD50 (mouse, strain Swiss albino, females, in drinking water, site: lung, lesion: adenocarcinoma, dosed 79 weeks, study length 79 weeks): 1250 mg/kg/day | TD50 (mouse, strain Swiss albino, females, in drinking water, site: lung, lesion: adenoma, dosed 79 weeks, study length 79 weeks): 150 mg/kg/day | TD50 (mouse, strain Swiss albino, females, in drinking water, site: lung, lesion: several types, types named in the paper, dosed 79 weeks, study length 79 weeks): 155 mg/kg/day | TD50 (mouse, strain Swiss albino, males, in drinking water, site: liver, lesion: angiosarcoma, dosed 79 weeks, study length 79 weeks): 2000 mg/kg/day (inactive) | TD50 (mouse, strain Swiss albino, males, in drinking water, site: liver, lesion: several types, types named in the paper, dosed 79 weeks, study length 79 weeks): 1790 mg/kg/day | TD50 (mouse, strain Swiss albino, males, in drinking water, site: lung, lesion: adenoma, dosed 79 weeks, study length 79 weeks): 158 mg/kg/day | TD50 (mouse, strain Swiss albino, males, in drinking water, site: lung, lesion: several types, types named in the paper, dosed 79 weeks, study length 79 weeks): 176 mg/kg/day
